The results in this text go back to patent US6894185B2, “Substituted chiral allosteric hemoglobin modifiers” (Allós Therapeutics, Inc., priority 1999, dated 2005).

Where “and” joins values, the source holds several entries; their conditions need not be identical. Identical values can stand only once.

Assay [1] addresses T1, hemoglobin (Homo sapiens, UniProt P68871+P69905).
T1 construct: The whole blood samples were collected in heparinized tubes from healthy volunteers; from tissue; host or cells: human whole blood (heparinized) from healthy volunteers
The assay can be described thus: In vitro whole blood studies (multi-point tonometry and blood gas analysis). As to conditions: for Whole Blood Δp50 mm Hg: Table II; for ΔP50 ± S.D. (P50 effector − P50control) / P50e (P50 value in the presence of the effector): Table VI, 2.5 mM Hb, 5.0 mM effector; for P50e (P50 value in the presence of the effector): single runs, DMSO stock. In kind it is cell-based. The method, then: (§1) Structure-allosteric activity relationships were determined from the synthetic chiral effectors comparing the shift in the oxygen binding curve of Hb solutions using a Hemox-Analyzer. In vitro biological activity testing in the presence of plasma proteins was also performed on selected enantiomers and racemates (multi-point tonometry and blood gas analysis) to screen for candidates with potential clinical use. SAR studies compared the degree in shift in P50 values, i.e., the partial pressure of molecular oxygen necessary to half-saturate hemoglobin. An effector that decreases Hb oxygen affinity increases the P50 value relative to the control. Thus, the activity or potency of each analog could be expressed by the ratio P50 (effector)/P50(control). Tables and II and III summarize the p50 values obtained using human whole blood, while Tables IV and V summarize the P50 and the Hill coefficient values (n50) at half-saturation obtained using Hemox-analyzer. The slope of the log of the oxygen binding curves is known as the Hill coefficient. The Hill coefficient measures the degree of cooperativity in binding for an allosteric protein, the normal range for human blood is 2.7-3.2. Table VI presents the results from the whole blood studies given as a ΔP50 and Hill coefficient (n50) values for the enantiomers and racemates.
The whole blood samples were collected in heparinized tubes from healthy volunteers and stored over ice. The sodium salts of the compounds were prepared as described earlier. A 200 mM stock solution of the effector was prepared in DMSO. A 5.0 mM test solution was prepared from 50 μL of the 200 mM test solution and 1950 μL of whole blood. The blood samples were incubated in IL 237 tonometers (Instrumentation Laboratories, Inc. Lexington, Mass.) for approximately 10-12 min at 37° C. and equilibrated at three separate concentrations of O2 (20%, 40%, and 60%). After equilibration at each concentration of O2, a sample was removed via syringe and aspirated into a IL 1420 Automated Blood Gas Analyzer (Instrumentation Laboratories, Inc. Lexington, Mass.) and a IL 482 and IL 682 Co-oximeter (Instrumentation Laboratories, Inc. Lexington, Mass.) to determine the pH, pCO2, pO2 and the hemoglobin oxygen saturation values (sO2), respectively. The measured values for pO2 and sO2 at each oxygen saturation level were then subjected to a non-linear regression analysis using the program Scientist (Micromath, Salt Lake City, Utah) to calculate the P50 and Hill coefficient values.

Assay [2] concerns the target T2, purified stripped human adult hemoglobin (Homo sapiens, UniProt P68871+P69905).
T2 construct: using purified stripped human adult hemoglobin as described previously; from tissue
The assay can be described thus: Hemoglobin solution oxygen equilibrium studies (HEMOX-analyzer). In kind it is biochemical. Conditions: for n50 (Hill coefficient at 50% saturation): n50 control 2.7; for P50e/P50c: ratio to P50 control with no effector (5.0 mmHg). The method, then: as §1, with “Tables and II and III summarize the p50 values obtained using human whole blood, while Tables IV and V summarize the P50 and the Hill coefficient values (n50) at half-saturation obtained using Hemox-analyzer.” left out, “2.7-3.2.” for “2.7-3.2. Table VI presents the results from the whole blood studies given as a ΔP50 and Hill coefficient (n50) values for the enantiomers and racemates.”
The effectors were prepared as 10 mM stock solutions in 100 mM NaCl bis-Tris buffer, pH 7.2. After the addition of an excess of NaHCO3, the solution was warmed to 60° C. and stirred for several hours. The solutions were back titrated carefully to pH 7.2 at 25° C. prior to use. Oxygen equilibrium measurements were performed with the HEMOX-analyzer (TCS Medical products, Southampton, Pa.) using purified stripped human adult hemoglobin as described previously. 4 mL of buffer, 100 mM NaCl, 50 mM bis-Tris at pH 7.2, is added to a cuvette in the HEMOX, followed by 200 μL of the 10 mM effector stock solution. Hemoglobin is then added to achieve a final Hb concentration of […] on heme basis. Catalase (20 μg/mL) and 50 mM EDTA were added to limit oxidation of the hemes. […] The saturation of hemoglobin was determined spectrophotometrically with a dual wavelength spectrophotometer (577 nm and 586.2 nm). The solution was stirred constantly during the 45-60 min recordings. The P50 and n50 values were calculated by linear regression analysis from data points comprised between 40 and 60% oxygen saturation.

In assay [3] the target is T2, purified stripped human adult hemoglobin. The description is as above. In kind it is biochemical. As to conditions: 0.5 mM effector, 100 mM bis-Tris buffer, pH 7.2.
[4] abbreviates: Table IV, 0.5 mM effector, pH 7.2.
The mark [5] stands for this setting: Table V resolved enantiomers, 0.5 mM effector, pH 7.2.

T1 sequence (P69905 2-142 limits assumed): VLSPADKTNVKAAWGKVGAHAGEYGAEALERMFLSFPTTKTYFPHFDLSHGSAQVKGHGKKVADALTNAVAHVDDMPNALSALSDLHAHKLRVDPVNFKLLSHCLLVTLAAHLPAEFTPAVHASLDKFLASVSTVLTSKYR
T1 sequence (P68871 2-147 limits assumed): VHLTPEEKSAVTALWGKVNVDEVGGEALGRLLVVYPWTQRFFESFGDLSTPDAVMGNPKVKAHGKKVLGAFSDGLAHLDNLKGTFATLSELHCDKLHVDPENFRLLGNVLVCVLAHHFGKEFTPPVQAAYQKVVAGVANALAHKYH
T2 sequence (P69905 2-142 limits assumed): as the sequence (P69905 2-142 limits assumed) above
T2 sequence (P68871 2-147 limits assumed): as the sequence (P68871 2-147 limits assumed) above

In the case of `Cc1cc(C)cc(NC(=O)Cc2ccc(OC3(C(=O)O)CCC(C)C3)cc2)c1` (centres unmarked) [Compound 3], the “Whole Blood Δp50 mm Hg” value in assay [1] is reported as 20.3 mm Hg. Further, in assay [2] (setting [4]), the “n50 (Hill coefficient at 50% saturation)” value turned out to be 2.5 and the P50e/P50c is recorded as 2.6. The “P50e (oxygen pressure at which Hb is 50% saturated with oxygen in the presence of the effector)” value in assay [3] (Table IV) is recorded as 13 mmHg.
As to `Cc1cc(C)cc(NC(=O)Cc2ccc(OC(C)C(=O)O)cc2)c1` (single isomer, unassigned; (-)) [(−) 18, (−)-2-[4-[[(3,5-dimethylanilino)carbonyl]methyl]phenoxy]-propionic acid], in assay [1], the “ΔP50 ± S.D. (P50 effector − P50control)” value is 12.3 ± 0.6 mmHg; the “P50e (P50 value in the presence of the effector)” value is 39.7 mmHg and 40.5 mmHg. Moreover, the “n50 (Hill coefficient at 50% saturation)” value in assay [2] (setting [5]) came to 2.5. In addition, in assay [2] (Table V resolved enantiomers), the P50e/P50c stood at 1.3. Further, in assay [3] (Table V resolved enantiomers), the “P50e (oxygen pressure at which Hb is 50% saturated with oxygen in the presence of the effector)” value was 6.6 mmHg.
For the compound `CCC(Oc1ccc(CC(=O)Nc2cc(C)cc(C)c2)cc1)C(=O)O` (single isomer, unassigned; (+)) [(+) 20], the “n50 (Hill coefficient at 50% saturation)” value in assay [2] (setting [5]) is given as 2.7. Also, the P50e/P50c in assay [2] (Table V resolved enantiomers) turned out to be 3.6. The “P50e (oxygen pressure at which Hb is 50% saturated with oxygen in the presence of the effector)” value in assay [3] (Table V resolved enantiomers) was 18 mmHg.
For the compound `Cc1cc(C)cc(NC(=O)Cc2ccc(OC3(C(=O)O)CCOCC3)cc2)c1` [Compound 4, 4-[4-[[(3,5-dimethylanilino)carbonyl]methyl]phenoxy]tetrahydro-2H-4-pyrancarboxylic acid], the “Whole Blood Δp50 mm Hg” value in assay [1] is on record as 17.8 mm Hg. Also, in assay [2] (setting [4]), the “n50 (Hill coefficient at 50% saturation)” value stood at 2.4 and the P50e/P50c is 1.5. In addition, the “P50e (oxygen pressure at which Hb is 50% saturated with oxygen in the presence of the effector)” value in assay [3] (Table IV) is recorded as 7.6 mmHg.
Turning to `Cc1cc(C)cc(NC(=O)Cc2ccc(OC3(C(=O)O)CCOC3C)cc2)c1` (centres unmarked) [Compound 2, 3-[4-[[(3,5-dimethylanifino)carbonyl]methyl]phenoxy]-2-methyltetrahydro-3-furan carboxylic acid], the “Whole Blood Δp50 mm Hg” value in assay [1] came out at 15.2 mm Hg. Besides, in assay [2] (setting [4]), the “n50 (Hill coefficient at 50% saturation)” value is on record as 2.4 and the P50e/P50c is listed as 1.5. The “P50e (oxygen pressure at which Hb is 50% saturated with oxygen in the presence of the effector)” value in assay [3] (Table IV) was 7.6 mmHg.
`Cc1cc(Cl)cc(NC(=O)Cc2ccc(OC(C)(C)C(=O)O)cc2)c1` [KDD86, reference compound]: in assay [2] (setting [4]), the “n50 (Hill coefficient at 50% saturation)” value is given as 2.4 and the P50e/P50c stood at 4.4. Further, the “P50e (oxygen pressure at which Hb is 50% saturated with oxygen in the presence of the effector)” value in assay [3] (Table IV) is listed as 21 mmHg.
For `Cc1cc(C)cc(NC(=O)Cc2ccc(OC(F)C(=O)O)cc2)c1` (centres unmarked) [Compound 19, 2-[4-[[3,5-dimethylanilino)carbonyl]methyl]phenoxy-2-fluoroacetic acid] the same measures were 2.5, 1.2 and 5.9 mmHg.
Turning to `CC1CCC(Oc2ccc(CC(=O)Nc3ccc4c(c3)CCC4)cc2)(C(=O)O)C1` (centres unmarked) [Compound 5], the “Whole Blood Δp50 mm Hg” value in assay [1] was 12.7 mm Hg. In assay [2] (setting [4]), the “n50 (Hill coefficient at 50% saturation)” value is listed as 2.6 and the P50e/P50c amounted to 2.5. The “P50e (oxygen pressure at which Hb is 50% saturated with oxygen in the presence of the effector)” value in assay [3] (Table IV) is 13 mmHg.
With `CCC(Oc1ccc(CC(=O)Nc2cc(C)cc(C)c2)cc1)C(=O)O` (single isomer, unassigned; (-)) [(−) 20], in assay [2] (setting [5]), the “n50 (Hill coefficient at 50% saturation)” value was found to be 2.8. Also, the P50e/P50c in assay [2] (Table V resolved enantiomers) came to 2. Moreover, the “P50e (oxygen pressure at which Hb is 50% saturated with oxygen in the presence of the effector)” value in assay [3] (Table V resolved enantiomers) is reported as 9.8 mmHg.
Turning to `Cc1cc(C)cc(NC(=O)Cc2ccc(OC3(C(=O)O)CCCC(C)C3)cc2)c1` (centres unmarked) [Compound 11, 1-[4-[[(3,5-dimethylanilino)carbonyl]methyl]phenoxy]-3-methylcyclohexane carboxylic acid], the “Whole Blood Δp50 mm Hg” value in assay [1] was found to be 16 mm Hg. In assay [2] (setting [4]), the “n50 (Hill coefficient at 50% saturation)” value is 2.5 and the P50e/P50c is reported as 2.1. The “P50e (oxygen pressure at which Hb is 50% saturated with oxygen in the presence of the effector)” value in assay [3] (Table IV) was determined as 10 mmHg.
Regarding `Cc1cc(Cl)cc(NC(=O)Cc2ccc(OC3(C(=O)O)CCC(C)C3)cc2)c1` (centres unmarked) [Compound 9, 1-[4-[[(3-chloro-5-methylanilino)carbonyl]methyl]phenoxy]-3-methylcyclopentane carboxylic acid], the “Whole Blood Δp50 mm Hg” value in assay [1] stood at 15 mm Hg. In addition, in assay [2] (setting [4]), the “n50 (Hill coefficient at 50% saturation)” value came to 2.4 and the P50e/P50c is on record as 2.8. The “P50e (oxygen pressure at which Hb is 50% saturated with oxygen in the presence of the effector)” value in assay [3] (Table IV) is listed as 14 mmHg.
On the same counts, the results for `Cc1cc(Cl)cc(NC(=O)Cc2ccc(OC3(C(=O)O)CCCC3C)cc2)c1` (centres unmarked) [Compound 8, 1-[4-[[(3-chloro-5-methylanilino)carbonyl]methyl]phenoxy]-2-methylcyclopentane carboxylic acid] are 25 mm Hg, 2.4, 4.4 and 22 mmHg.
As for `Cc1cc(C)cc(NC(=O)Cc2ccc(OC(C)C(=O)O)cc2)c1` (racemic) [Compound 18, 2-[4-[[(3,5-dimethylanilino)carbonyl]methyl]phenoxy]-propionic acid], in assay [1], the “ΔP50 ± S.D. (P50 effector − P50control)” value was 18.2 ± 2.6 mmHg; the “P50e (P50 value in the presence of the effector)” value was 47.2 mmHg and 43.5 mmHg. Further, in assay [2] (setting [4]), the “n50 (Hill coefficient at 50% saturation)” value turned out to be 2.6 and the P50e/P50c was found to be 1.9. Moreover, the “P50e (oxygen pressure at which Hb is 50% saturated with oxygen in the presence of the effector)” value in assay [3] (Table IV) turned out to be 9.3 mmHg.
With `CCC(C)(Oc1ccc(CC(=O)Nc2cc(C)cc(C)c2)cc1)C(=O)O` (centres unmarked) [Compound 21, 2-[4-[[(3,5-dimethylanilino)carbonyl]methyl]phenoxy]-2-methylbutanoic acid], in assay [2] (setting [4]), the “n50 (Hill coefficient at 50% saturation)” value is 2.4 and the P50e/P50c is given as 2.7. In addition, the “P50e (oxygen pressure at which Hb is 50% saturated with oxygen in the presence of the effector)” value in assay [3] (Table IV) came to 13 mmHg.
On the same counts, the results for `CCC(Oc1ccc(CC(=O)Nc2cc(C)cc(C)c2)cc1)C(=O)O` (racemic) [Compound 20, 2-[4-[[(3,5-dimethylanilino)carbonyl]methyl]phenoxy]-butanoic acid] are 2.7, 2.6 and 13 mmHg.
Turning to `CC(C)(Oc1ccc(CC(=O)Nc2ccc3c(c2)CCC3)cc1)C(=O)O` [RSR46, reference compound], in assay [2] (setting [4]), the “n50 (Hill coefficient at 50% saturation)” value is reported as 2.6 and the P50e/P50c was found to be 3. For the same compound, the “P50e (oxygen pressure at which Hb is 50% saturated with oxygen in the presence of the effector)” value in assay [3] (Table IV) was determined as 15 mmHg.
